Experimental data: US10881110B2, “Herbicidal compositions comprising isoxazolo[5,4-b]pyridines” (BASF SE, priority 2014, dated 2021)

Legend:
Experiment in all cases: greenhouse post-emergence herbicidal test
[1] = test system: CONAR; format: in vivo, Convolvulus arvensis; set-up: key: rating on a scale from 0 to 100
Procedure, shortened: (§1)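 Combination activity judged against additive expectation by Colby, E=X+Y−(X·Y/100), from 0–100 damage ratings taken 20 days post-spray. Plants at 1–15 cm in loamy sand (69.9% sand) were sprayed with components formulated as 10% w/w emulsion concentrate in water.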

[2] = test system: ALOMY; format: in vivo, Alopecurus myosuroides; set-up: key to herbicidal activity against ALOMY found: rating on a scale from 0 to 100; conditions: post emergence, 20 days after treatment
Procedure, shortened: as §1

[3] = test system: STEME; format: in vivo, Stellaria media; set-up: key: scale 0 to 100
Procedure, shortened: as §1

[4] = test system: GERDI; format: in vivo, Geranium dissectum; set-up: key to herbicidal activity against GERDI found: rating on a scale from 0 to 100; conditions: post emergence
Procedure, shortened: as §1

[5] = test system: LOLMU; format: in vivo, Lolium multiflorum
Experimental: (§2) The culture containers used were plastic pots containing medium loamy sand with approximately 4.6% of humus and 69.9% sand as substrate. The seeds of the test plants were sown separately for each species.
(§3) For the post-emergence treatment, the test plants were grown to a plant height of from 1 to 15 cm, depending on the plant habit, and only then treated with the active compounds which had been suspended or emulsified in water. To this end, the test plants were either sown directly, and grown in the same containers, or they were first grown separately as seedlings and transplanted into the test containers a few days prior to treatment.
(§4) Depending on the species, the plants were kept at 10-25° C. and 20-35° C., respectively.
(§5) The test period extended over 1 to 3 weeks. During this time, the plants were tended and their response to the individual treatments was evaluated 20 days after treatment except mentioned otherwise.
(§6) Evaluation was carried out using a scale from 0 to 100. 100 means no emergence of the plants, or complete destruction of at least the above-ground parts, and 0 means no damage or normal course of growth.
(§7) The respective stated components A and B, and, if appropriate, C, were formulated as a 10% by weight strength emulsion concentrate and, with addition of the amount of solvent system, introduced into the spray liquor used for applying the active compound. In the examples, the solvent used was water.
(§8) In the examples below, using the method of S. R. Colby (1967) “Calculating synergistic and antagonistic responses of herbicide combinations”, Weeds 15, p. 22 ff., the value E, which is expected if the activity of the individual active compounds is only additive, was calculated. E=X+Y−(X·Y/100)

[6] = test system: MATCH; format: in vivo, Matricaria recutita; set-up: key to herbicidal activity against MATCH found: rating on a scale from 0 to 100; conditions: post emergence, 20 days after treatment
Procedure, shortened: as §1

[7] = test system: APESV; format: in vivo, Apera spica-venti; set-up: key to herbicidal activity against APESV found: rating on a scale from 0 to 100; conditions: post emergence, 20 days after treatment
Procedure, shortened: as §1

[8] = test system: GALAP; format: in vivo, Galium aparine; set-up: key to herbicidal activity against GALAP found: rating on a scale from 0 to 100; conditions: post emergence
Procedure, shortened: (§9)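 Post-emergence greenhouse test: plants in loamy sand, sprayed at 1–15 cm height with aqueous spray liquor from 10% emulsion concentrates, kept at 10-25 °C or 20-35 °C by species. Damage scored 0–100 (100 = complete destruction), usually 20 days after treatment. Expected additive effect E from Colby: E=X+Y−(X·Y/100).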

[9] = test system: POLCO; format: in vivo, Polygonum convolvulus; set-up: key to herbicidal activity against POLCO found: rating on a scale from 0 to 100; conditions: post emergence, 20 days after treatment
Procedure, shortened: as §9

[10] = test system: PHACA; format: in vivo
Experimental: as §2, §3, §4, §5, §6, §7, §8

[11] = test system: ABUTH; format: in vivo, Abutilon theophrast; set-up: key to herbicidal activity against ABUTH found: rating on a scale from 0 to 100; conditions: post emergence, 20 days after treatment
Procedure, shortened: as §1

[12] = test system: CHEAL; format: in vivo, Chenopodium album
Experimental: as §2, §3, §4, §5, §6, §7, §8

[13] = test system: ECHCG; format: in vivo, Echinochloa crus-galli; set-up: key to herbicidal activity against ECHCG found / herbicidal activity against ECHCH found: scale 0 to 100; conditions: post emergence, 20 days after treatment
Procedure, shortened: as §1

[14] = test system: PANMI; format: in vivo, Panicum miliaceum; conditions: application rate a.i.: I.1 125 g/ha, alone or as mixture (composition 1.113)
Experimental: as §2, §3, §4, §5, §6, §7, §8

[15] = a.i. g/ha: I.1 7.8, B.67 125, 20 days after treatment
[16] = a.i. g/ha: I.1 15.6, B.67 125, 20 days after treatment
[17] = a.i. g/ha: I.1 20.8, B.67 62.5, 20 days after treatment
[18] = a.i. g/ha: I.1 31.25, B.67 125, 20 days after treatment
[19] = a.i. g/ha: I.1 62.5, B.67 62.5, 20 days after treatment
[20] = a.i. g/ha: I.1 62.5, B.67 125, 20 days after treatment
[21] = a.i. g/ha: I.1 6.9, B.67 62.5, 20 days after treatment
[22] = a.i. g/ha: I.1 31.25, B.67 125, 20 days after treatment, sub-table r36-r43
[23] = a.i. g/ha: I.1 31.25, B.67 125, sub-table r36-r43
[24] = application rate a.i.: I.1 125 g/ha, B.113 (glyphosate) 33.75 g/ha, alone or as mixture (composition 1.113)
[25] = application rate a.i.: I.1 125 g/ha, B.113 (glyphosate) 135 g/ha, alone or as mixture (composition 1.113)

CCNc1nc(Cl)nc(NC(C)C)n1 [B.67, atrazine]
20%: herbicidal activity against LOLMU found [5, 19]
30%: herbicidal activity against PHACA found [10, 18] | herbicidal activity against PHACA found [10, 20]
80%: herbicidal activity against STEME found ([3]; a.i. g/ha: I.1 2.3, B.67 62.5, 20 days after treatment) | herbicidal activity against STEME found [3, 21] | herbicidal activity against STEME found [3, 17] | herbicidal activity against POLCO found ([9]; a.i. g/ha: I.1 20.8, B.67 62.5) | herbicidal activity against POLCO found ([9]; a.i. g/ha: I.1 62.5, B.67 62.5) | herbicidal activity against CHEAL found [12, 16] | herbicidal activity against CHEAL found [12, 18]
85%: herbicidal activity against GERDI found [4, 18] | herbicidal activity against GERDI found [4, 22]
35%: herbicidal activity against ALOMY found ([2]; a.i. g/ha: I.1 6.9, B.67 62.5) | herbicidal activity against ALOMY found ([2]; a.i. g/ha: I.1 20.8, B.67 62.5) | herbicidal activity against ALOMY found ([2]; a.i. g/ha: I.1 62.5, B.67 62.5) | herbicidal activity against LOLMU found [5, 15] | herbicidal activity against LOLMU found [5, 16] | herbicidal activity against LOLMU found [5, 18] | herbicidal activity against LOLMU found [5, 20] | herbicidal activity against ECHCG found ([13]; a.i. g/ha: I.1 20.8, B.67 62.5) | herbicidal activity against ECHCG found ([13]; a.i. g/ha: I.1 62.5, B.67 62.5)
65%: herbicidal activity against CONAR found [1, 15] | herbicidal activity against CONAR found [1, 16] | herbicidal activity against CONAR found [1, 18] | herbicidal activity against CONAR found [1, 20] | herbicidal activity against GALAP found [8, 17] | herbicidal activity against GALAP found [8, 19]
70%: herbicidal activity against GERDI found [4, 15] | herbicidal activity against GERDI found [4, 16] | herbicidal activity against GERDI found [4, 20] | herbicidal activity against MATCH found ([6]; a.i. g/ha: I.1 31.25, B.67 125) | herbicidal activity against MATCH found [6, 23] | herbicidal activity against GALAP found [8, 16] | herbicidal activity against GALAP found [8, 18]
50%: herbicidal activity against MATCH found ([6]; a.i. g/ha: I.1 62.5, B.67 125)
75%: herbicidal activity against STEME found [3, 16] | herbicidal activity against STEME found [3, 18] | herbicidal activity against STEME found [3, 22] | herbicidal activity against CHEAL found [12, 21] | herbicidal activity against CHEAL found [12, 17]
60%: herbicidal activity against CONAR found [1, 17] | herbicidal activity against CONAR found [1, 19] | herbicidal activity against APESV found ([7]; a.i. g/ha: I.1 2.3, B.67 62.5) | herbicidal activity against APESV found ([7]; a.i. g/ha: I.1 6.9, B.67 62.5) | herbicidal activity against POLCO found ([9]; a.i. g/ha: I.1 15.6, B.67 125) | herbicidal activity against POLCO found ([9]; a.i. g/ha: I.1 31.25, B.67 125) | herbicidal activity against ABUTH found ([11]; a.i. g/ha: I.1 7.8, B.67 125) | herbicidal activity against ABUTH found ([11]; a.i. g/ha: I.1 15.6, B.67 125) | herbicidal activity against ABUTH found ([11]; a.i. g/ha: I.1 31.25, B.67 125) | herbicidal activity against ABUTH found [11, 23] | herbicidal activity against ABUTH found ([11]; a.i. g/ha: I.1 62.5, B.67 125)

O=C(O)CNCP(=O)(O)O [B.113, glyphosate]
50: herbicidal activity against GALAP found [8, 24]
45: herbicidal activity against CONAR found [1, 24]
80: herbicidal activity against PANMI, found ([14]; B.113 (glyphosate) 33.75 g/ha) | herbicidal activity against GERDI found [4, 25] | herbicidal activity against GALAP found [8, 25]
90: herbicidal activity against PANMI, found ([14]; B.113 (glyphosate) 135 g/ha)
